Test results taken from ChEMBL document CHEMBL1201862, “PubChem BioAssay data set” (2004).
The source made the active and inactive calls.

Experiments:
[1] = Trypanosoma cruzi growth suppression in host cells – NIH3T3 host cells, beta-gal luminescence, confirmation (AID 2044); type: functional, cell-based;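 note: intracellular parasites grown in NIH/3T3 mouse fibroblasts as host cells; luminescent beta-galactosidase reporter signal from transgenic T. cruzi replicating inside host cells; inhibitors lower the luminescence signal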
[2] = NIH3T3 cell viability loss – ATP luminescence, mouse fibroblasts, counter-screen, dose response (AID 2010); type: functional, cell-based;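 note: cells exposed to compound for about 90 hours before reading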
Vero = assay: inhibition of WNV-induced cytopathic effect – cell-based, CPE readout (AID 1621); type: functional; conditions: Chlorocebus sabaeus
[3] = target: Peroxisome proliferator-activated receptor gamma/Nuclear receptor corepressor 2 (Homo sapiens, UniProt P37231+Q9Y618); assay: Counterscreen for NR2E3 inverse agonists: TR-FRET-based biochemical high throughput dose response assay to identify inverse agonists of the interaction between peroxisome proliferator-activated receptor gamma (PPARg) and nuclear receptor co-repressor 2 (NCOR2).; type: functional
[4] = target: Photoreceptor-specific nuclear receptor (Homo sapiens, UniProt Q9Y5X4); assay: ligands suppressing NR2E3 nuclear receptor activity – biochemical, TR-FRET, dose response (AID 463256); type: functional
Chain of Photoreceptor-specific nuclear receptor (Q9Y5X4 whole entry): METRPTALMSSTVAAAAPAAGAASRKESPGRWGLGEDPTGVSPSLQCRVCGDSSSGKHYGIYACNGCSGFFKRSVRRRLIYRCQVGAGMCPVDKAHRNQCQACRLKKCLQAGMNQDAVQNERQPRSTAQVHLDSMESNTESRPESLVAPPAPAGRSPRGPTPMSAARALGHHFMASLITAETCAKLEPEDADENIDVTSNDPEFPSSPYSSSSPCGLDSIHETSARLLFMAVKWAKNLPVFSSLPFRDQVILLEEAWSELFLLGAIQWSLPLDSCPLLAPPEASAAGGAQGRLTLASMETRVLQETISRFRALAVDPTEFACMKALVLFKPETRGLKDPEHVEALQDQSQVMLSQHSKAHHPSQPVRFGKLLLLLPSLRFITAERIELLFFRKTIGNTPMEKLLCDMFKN

[5] = target: T1, High affinity choline transporter 1 (Homo sapiens, UniProt Q9GZV3); assay: human choline transporter blockers, potency – cell-based, 5-point CRC, membrane potential dye, dose response (AID 504840); type: functional
T1 sequence (Q9GZV3 whole entry): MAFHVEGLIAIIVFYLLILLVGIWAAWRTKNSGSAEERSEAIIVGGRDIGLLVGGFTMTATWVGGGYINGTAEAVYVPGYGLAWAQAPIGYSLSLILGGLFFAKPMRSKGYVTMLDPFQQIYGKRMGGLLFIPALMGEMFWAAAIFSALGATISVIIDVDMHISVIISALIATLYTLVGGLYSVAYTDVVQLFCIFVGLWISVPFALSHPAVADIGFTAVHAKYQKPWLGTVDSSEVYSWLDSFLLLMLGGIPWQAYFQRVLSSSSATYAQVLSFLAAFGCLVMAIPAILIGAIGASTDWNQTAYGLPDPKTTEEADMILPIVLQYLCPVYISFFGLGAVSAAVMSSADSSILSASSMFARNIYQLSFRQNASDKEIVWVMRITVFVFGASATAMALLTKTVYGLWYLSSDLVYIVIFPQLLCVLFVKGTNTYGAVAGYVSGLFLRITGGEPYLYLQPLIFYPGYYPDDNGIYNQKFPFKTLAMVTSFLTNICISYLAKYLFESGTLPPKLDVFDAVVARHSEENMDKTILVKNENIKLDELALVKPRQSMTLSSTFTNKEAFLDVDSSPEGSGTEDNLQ

[6] = A549 cell cytotoxicity, dose response, cytotoxicity control, plate reader, cherry-pick, antagonist series (AID 743412); type: functional, cell-based
[7] = THP-1 cell cytotoxicity, dose response, cytotoxicity control for non-replicating M. tuberculosis project (AID 489025); type: functional
INS1 = assay: INS-1E survival protection against cytokine death – cell-based, luminescence, retest, dose response (AID 449756); type: functional; conditions: Rattus norvegicus;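 note: cell death triggered by IL-1 beta plus TNF-alpha plus IFN-gamma mixture; protective hits raise ATP signal compared with cytokine alone wells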
[8] = toxicity toward HepG2 liver cells – cell-based, plate reader, cherry-pick, antagonist series, cytotoxicity control, dose response (AID 743416); type: functional
[9] = blockers of bursicon-stimulated LGR2 cAMP reporter – cell-based, HEK293, CRE-luciferase reporter, cherry pick, set 2, dose response (AID 743343); type: functional;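 note: transfected cells were stimulated with diluted bursicon conditioned medium after compound addition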
[10] = target: Heat shock protein HSP 90-alpha (Homo sapiens, UniProt P07900); type: functional, organism-based
[11] = reduced cellular PGC1a acetyl-lysine signal – cell-based, cherry-picked samples, dose response (AID 720514); type: functional;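 note: potency may reflect raised or lowered acetylation signal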
[12] = target: Sphingosine 1-phosphate receptor 1 (Homo sapiens, UniProt P21453); type: functional;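 note: Tango beta-arrestin reporter U2OS cells stimulated with S1P near its EC80; inhibitor potency meaning antagonism of receptor activation by the natural agonist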
Chain of Sphingosine 1-phosphate receptor 1 (P21453 whole entry): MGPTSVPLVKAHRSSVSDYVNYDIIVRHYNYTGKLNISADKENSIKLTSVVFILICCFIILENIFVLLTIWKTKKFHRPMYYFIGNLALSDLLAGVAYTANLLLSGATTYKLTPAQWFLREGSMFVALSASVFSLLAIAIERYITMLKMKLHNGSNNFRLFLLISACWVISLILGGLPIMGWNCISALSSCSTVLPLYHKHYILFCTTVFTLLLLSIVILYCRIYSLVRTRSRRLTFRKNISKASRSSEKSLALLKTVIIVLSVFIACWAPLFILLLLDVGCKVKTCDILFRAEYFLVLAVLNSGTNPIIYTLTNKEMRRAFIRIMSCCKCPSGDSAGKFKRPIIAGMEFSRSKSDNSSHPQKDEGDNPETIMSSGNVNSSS

[13] = blockade of melanocortin 4 receptor signaling – cell-based, plate reader, cherry pick, counter-screen for LGR2 antagonist project, dose response (AID 743444); type: functional;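 note: transfected HEK 293 cells stimulated with alpha-MSH peptide; potency of inhibitors of the alpha-MSH evoked signal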
[14] = target: T2, Sphingosine 1-phosphate receptor 4 (Homo sapiens, UniProt O95977); assay: Fluorescence dose response cell-based high throughput screening assay for antagonists of the Sphingosine 1-Phosphate Receptor 4 (S1P4). [Related pubchem assays: 1524 (Confirmation in triplicates.), 1510 (Primary screen.)]; type: functional
T2 sequence (O95977 whole entry): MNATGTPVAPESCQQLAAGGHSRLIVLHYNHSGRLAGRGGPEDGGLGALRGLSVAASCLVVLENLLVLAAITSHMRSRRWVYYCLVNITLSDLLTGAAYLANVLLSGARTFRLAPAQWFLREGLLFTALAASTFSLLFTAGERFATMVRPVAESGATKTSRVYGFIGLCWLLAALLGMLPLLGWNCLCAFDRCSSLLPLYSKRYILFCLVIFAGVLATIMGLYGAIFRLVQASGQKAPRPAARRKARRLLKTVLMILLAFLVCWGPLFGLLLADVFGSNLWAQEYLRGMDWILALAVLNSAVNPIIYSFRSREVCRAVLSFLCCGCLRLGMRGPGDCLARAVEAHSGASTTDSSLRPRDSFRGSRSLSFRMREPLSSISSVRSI

[15] = target: T2, Sphingosine 1-phosphate receptor 4; assay: Late stage fluorescence dose response cell-based screening assay for antagonists of the Sphingosine 1-Phosphate Receptor 4 (S1P4). [Related pubchem assays: 1524 (Confirmation screen (S1P4 antagonists).), 1510 (Primary screen (S1P4 antagonists).), 1853 (Summary AID (S1P4 antagonists).), 1692 (Dose response screen (S1P4 antagonists).)]; type: functional
[16] = Luminescent dose response cell-based high throughput screening assay for inhibitors of the Janus kinase 2 mutant JAK2V617F. [Related pubchem assays: 1446 (Primary screen.), 1521 (Confirmation assay.), 1486 (Counter screen.)]; type: functional
[17] = viability loss in HEK293 cells – cell-based, plate reader, cherry-picked samples, cytotoxicity control, dose response (AID 743446); type: functional
[18] = Luminescence Cell-Based Dose Response HTS to Identify Activators of Luciferase Translation or Activity in H4 […] Cells. [Related pubchem assays: 1829 (Project Summary), 1814 (Primary HTS)]; type: functional
H4 = assay: Luminescence Cell-Based Dose Response HTS to Identify Activators of 5'UTR Stem-Loop Driven Prion Protein mRNA Translation in H4 Neuroglioblastoma Cells. [Related pubchem assays: 1829 (Project Summary), 1814 (Primary HTS)]; type: functional; conditions: Homo sapiens
[19] = Luminescence Cell-Based Dose Response to Identify Activators of 5'UTR Stem-Loop Driven Prion Protein mRNA Translation in H4-C Neuroglioblastoma Cells. [Related pubchem assays: 1829 (Project Summary), 1814 (Primary HTS)]; type: functional
[20] = Luminescence Cell-Based Dose Response to Identify Activators of Luciferase Translation or Activity in H4-C Neuroglioblastoma Cells. [Related pubchem assays: 1829 (Project Summary), 1814 (Primary HTS)]; type: functional
[21] = Luminescence Cell-Based Dose Confirmation to Identify Activators of 5'UTR Stem-Loop Driven Alpha-Synuclein mRNA Translation in H4 Neuroglioblastoma Cells. [Related pubchem assays: 1829 (Project Summary), 1814 (Primary HTS)]; type: functional
[22] = DRD fibroblast viability loss – cell-based, non-viral oncogenic, luminescence, dose response (AID 1934); type: functional; conditions: Homo sapiens
BJ [23] = assay: cells; type: functional, cell-based; conditions: Homo sapiens
[24] = fluconazole-exposed Candida albicans growth modulators – fluorescence, retest, confirmation (AID 2467); type: functional, cell-based
BJ [25] = assay: BJ-TERT-LT-ST fibroblast viability loss – cell-based, RAS-independent, luminescence, dose response (AID 1935); type: functional; conditions: Homo sapiens;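 note: BJ fibroblasts immortalized with TERT plus LT and ST oncogenes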
Galanin receptor type 2 = Galanin receptor type 2 (Homo sapiens, UniProt O43603); assay: Dose Response cell-based high-throughput screening assay to identify antagonists of galanin receptor 2 (GALR2). [Related pubchem assays: 828, 866 ]; type: functional
Chain of Galanin receptor type 2 (O43603 whole entry): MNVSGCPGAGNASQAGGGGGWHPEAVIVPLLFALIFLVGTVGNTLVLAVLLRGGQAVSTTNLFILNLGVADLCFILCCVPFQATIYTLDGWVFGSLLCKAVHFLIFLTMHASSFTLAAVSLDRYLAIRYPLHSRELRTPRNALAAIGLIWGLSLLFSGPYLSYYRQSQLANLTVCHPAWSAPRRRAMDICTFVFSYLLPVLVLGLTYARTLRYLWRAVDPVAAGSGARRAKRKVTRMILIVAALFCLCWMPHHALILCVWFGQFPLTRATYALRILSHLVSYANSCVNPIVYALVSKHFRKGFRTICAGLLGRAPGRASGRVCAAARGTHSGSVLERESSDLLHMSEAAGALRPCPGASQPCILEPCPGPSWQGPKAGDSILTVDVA

[26] = target: T3, Heat shock factor protein 1 (Mus musculus, UniProt P38532); assay: enhancement of HSF1-driven luciferase signal – cell-based, NIH3T3, luminescence, dose retest, confirmation (AID 435004); type: functional;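 note: stress induced by proteasome inhibitor MG132 added 30 min after compound; luciferase reporter driven by HSF1 response element in NIH3T3 cells; actives raise luminescence as potentiators of the MG132 stress response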
T3 sequence (P38532 whole entry): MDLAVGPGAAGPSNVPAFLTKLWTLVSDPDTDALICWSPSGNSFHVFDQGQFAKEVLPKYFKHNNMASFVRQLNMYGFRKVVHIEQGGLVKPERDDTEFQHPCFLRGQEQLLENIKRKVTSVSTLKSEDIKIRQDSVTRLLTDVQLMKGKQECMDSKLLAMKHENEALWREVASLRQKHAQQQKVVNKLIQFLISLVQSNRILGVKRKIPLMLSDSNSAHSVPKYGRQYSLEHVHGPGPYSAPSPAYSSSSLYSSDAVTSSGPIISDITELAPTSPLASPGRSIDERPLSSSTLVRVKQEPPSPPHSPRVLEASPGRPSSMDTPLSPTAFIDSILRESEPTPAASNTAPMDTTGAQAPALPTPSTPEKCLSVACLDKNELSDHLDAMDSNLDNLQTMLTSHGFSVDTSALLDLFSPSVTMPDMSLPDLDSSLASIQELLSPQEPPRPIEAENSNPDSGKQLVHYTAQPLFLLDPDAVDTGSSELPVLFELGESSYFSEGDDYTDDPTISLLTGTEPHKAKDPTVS

[27] = target: T4, Microphthalmia-associated transcription factor (Homo sapiens, UniProt O75030); assay: reducers of TRPM1 reporter luminescence, concentration series – cell-based, SK-MEL-5, cherry-picked, set 3, MITF inhibitor project, dose response (AID 493073); type: functional;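 note: SK-MEL-5 melanoma cells with luciferase driven by the MITF target TRPM1 promoter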
T4 sequence (O75030 whole entry): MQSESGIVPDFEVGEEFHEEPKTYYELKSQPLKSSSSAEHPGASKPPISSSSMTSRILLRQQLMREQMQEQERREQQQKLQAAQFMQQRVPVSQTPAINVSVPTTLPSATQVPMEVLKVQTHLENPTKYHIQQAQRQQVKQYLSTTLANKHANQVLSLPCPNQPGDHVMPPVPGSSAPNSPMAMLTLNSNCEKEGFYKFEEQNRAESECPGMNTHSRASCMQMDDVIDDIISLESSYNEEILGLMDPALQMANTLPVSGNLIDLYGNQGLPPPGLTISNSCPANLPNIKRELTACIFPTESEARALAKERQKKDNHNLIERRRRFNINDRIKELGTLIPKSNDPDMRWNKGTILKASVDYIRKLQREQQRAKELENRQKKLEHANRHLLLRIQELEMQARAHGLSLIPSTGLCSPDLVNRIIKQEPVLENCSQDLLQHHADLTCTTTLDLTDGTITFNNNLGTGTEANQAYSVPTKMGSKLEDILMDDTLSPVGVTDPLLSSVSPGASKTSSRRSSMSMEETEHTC

[28] = target: G-protein coupled receptor 55 (Homo sapiens, UniProt Q9Y2T6); assay: selective activators of receptor GPR55 – imaging, U2OS cells, beta-arrestin-GFP redistribution, primary screen (AID 1961); type: functional
Chain of G-protein coupled receptor 55 (Q9Y2T6 whole entry): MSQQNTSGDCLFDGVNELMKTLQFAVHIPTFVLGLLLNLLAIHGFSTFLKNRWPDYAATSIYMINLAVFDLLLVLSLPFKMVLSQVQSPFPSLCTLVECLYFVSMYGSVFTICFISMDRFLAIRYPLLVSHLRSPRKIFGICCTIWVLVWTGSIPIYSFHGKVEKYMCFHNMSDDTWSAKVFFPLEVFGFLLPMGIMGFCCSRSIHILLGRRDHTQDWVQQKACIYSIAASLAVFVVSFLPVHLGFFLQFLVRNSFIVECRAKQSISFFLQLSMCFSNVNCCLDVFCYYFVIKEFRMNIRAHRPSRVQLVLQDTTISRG

BJ [29] = assay: BJ-TERT fibroblast viability loss – cell-based, RAS-independent, luminescence, dose response (AID 1933); type: functional; conditions: Homo sapiens
[30] = NIH-3T3 fibroblast cytotoxicity, dose response, cytotoxicity control, cell-based, fluorescence, Alamar Blue, secondary assay (AID 2327); type: functional;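 note: NIH-3T3 mouse fibroblasts cultured with fluconazole at 8 µg/mL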
[31] = Fluorescence Cell-Based Dose Response to Identify Inhibitors of Thrombin Receptor-Activating Peptide SFLLRN-Mediated P-Selectin Induction on Platelets. [Related pubchem assays: 1663 (Primary HTS), 1889 (retest at dose ), 1891 (counterscreen), 1678 (Project Summary)]; type: functional
[32] = Luminescence Cell-Based Dose Confirmation HTS to Identify Inhibitors of Platelet Dense Granule Release. [Related pubchem assays: 1663 (Primary HTS), 1678 (Summary of Project)]; type: functional
[33] = target: Luciferin 4-monooxygenase (Photinus pyralis, UniProt P08659); assay: inhibition of purified Photinus pyralis luciferase – biochemical, luminescence, dose response (AID 1891)
Chain of Luciferin 4-monooxygenase (P08659 whole entry): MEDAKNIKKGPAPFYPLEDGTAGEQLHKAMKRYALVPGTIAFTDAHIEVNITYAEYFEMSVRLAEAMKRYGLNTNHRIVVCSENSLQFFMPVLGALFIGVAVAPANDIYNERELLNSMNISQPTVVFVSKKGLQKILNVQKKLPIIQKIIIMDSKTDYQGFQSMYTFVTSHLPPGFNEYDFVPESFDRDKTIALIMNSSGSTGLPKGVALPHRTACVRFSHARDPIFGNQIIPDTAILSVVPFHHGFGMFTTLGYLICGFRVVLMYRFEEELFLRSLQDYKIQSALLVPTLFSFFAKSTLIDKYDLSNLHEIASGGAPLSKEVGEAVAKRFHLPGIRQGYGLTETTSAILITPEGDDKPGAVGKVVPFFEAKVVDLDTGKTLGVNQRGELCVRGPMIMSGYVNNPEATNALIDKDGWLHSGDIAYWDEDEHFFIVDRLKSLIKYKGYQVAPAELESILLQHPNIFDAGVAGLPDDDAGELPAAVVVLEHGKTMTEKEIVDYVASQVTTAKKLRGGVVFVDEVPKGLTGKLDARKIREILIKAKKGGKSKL

[34] = target: Protein-tyrosine kinase 2-beta (Homo sapiens, UniProt Q14289);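 note: potency of inhibitors of PYK2 kinase phosphorylation of poly-GT substrate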
Chain of Protein-tyrosine kinase 2-beta (Q14289 whole entry): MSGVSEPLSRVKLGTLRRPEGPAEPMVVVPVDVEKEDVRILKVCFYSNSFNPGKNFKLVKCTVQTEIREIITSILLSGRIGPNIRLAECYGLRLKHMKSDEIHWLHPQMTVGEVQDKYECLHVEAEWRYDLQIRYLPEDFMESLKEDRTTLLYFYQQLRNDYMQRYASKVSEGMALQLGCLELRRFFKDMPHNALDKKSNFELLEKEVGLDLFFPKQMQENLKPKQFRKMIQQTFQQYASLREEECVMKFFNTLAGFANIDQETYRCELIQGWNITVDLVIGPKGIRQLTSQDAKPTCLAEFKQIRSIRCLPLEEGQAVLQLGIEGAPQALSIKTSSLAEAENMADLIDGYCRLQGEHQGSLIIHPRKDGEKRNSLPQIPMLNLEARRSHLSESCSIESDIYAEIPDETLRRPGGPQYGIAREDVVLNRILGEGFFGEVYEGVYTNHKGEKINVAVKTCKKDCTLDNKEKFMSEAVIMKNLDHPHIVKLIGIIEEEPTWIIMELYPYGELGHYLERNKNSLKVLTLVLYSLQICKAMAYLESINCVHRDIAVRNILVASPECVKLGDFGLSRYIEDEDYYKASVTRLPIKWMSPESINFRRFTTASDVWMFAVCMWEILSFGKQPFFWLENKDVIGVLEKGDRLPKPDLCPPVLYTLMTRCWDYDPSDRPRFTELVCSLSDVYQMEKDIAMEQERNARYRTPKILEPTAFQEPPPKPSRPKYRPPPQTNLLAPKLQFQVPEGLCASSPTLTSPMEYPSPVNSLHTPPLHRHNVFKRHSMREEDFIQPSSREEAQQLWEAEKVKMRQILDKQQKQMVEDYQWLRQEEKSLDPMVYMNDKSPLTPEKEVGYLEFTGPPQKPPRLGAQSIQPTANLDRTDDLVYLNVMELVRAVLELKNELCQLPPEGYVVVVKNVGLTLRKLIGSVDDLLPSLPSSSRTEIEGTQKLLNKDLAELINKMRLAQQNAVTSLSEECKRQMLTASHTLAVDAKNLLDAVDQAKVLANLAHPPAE

[35] = target: Voltage-gated inwardly rectifying potassium channel KCNH2 (Homo sapiens, UniProt Q12809); assay: concentration-dependent hERG rescue from blockers – cell-based, thallium flux, dose response (AID 2121); type: ADME
Chain of Voltage-gated inwardly rectifying potassium channel KCNH2 (Q12809 whole entry): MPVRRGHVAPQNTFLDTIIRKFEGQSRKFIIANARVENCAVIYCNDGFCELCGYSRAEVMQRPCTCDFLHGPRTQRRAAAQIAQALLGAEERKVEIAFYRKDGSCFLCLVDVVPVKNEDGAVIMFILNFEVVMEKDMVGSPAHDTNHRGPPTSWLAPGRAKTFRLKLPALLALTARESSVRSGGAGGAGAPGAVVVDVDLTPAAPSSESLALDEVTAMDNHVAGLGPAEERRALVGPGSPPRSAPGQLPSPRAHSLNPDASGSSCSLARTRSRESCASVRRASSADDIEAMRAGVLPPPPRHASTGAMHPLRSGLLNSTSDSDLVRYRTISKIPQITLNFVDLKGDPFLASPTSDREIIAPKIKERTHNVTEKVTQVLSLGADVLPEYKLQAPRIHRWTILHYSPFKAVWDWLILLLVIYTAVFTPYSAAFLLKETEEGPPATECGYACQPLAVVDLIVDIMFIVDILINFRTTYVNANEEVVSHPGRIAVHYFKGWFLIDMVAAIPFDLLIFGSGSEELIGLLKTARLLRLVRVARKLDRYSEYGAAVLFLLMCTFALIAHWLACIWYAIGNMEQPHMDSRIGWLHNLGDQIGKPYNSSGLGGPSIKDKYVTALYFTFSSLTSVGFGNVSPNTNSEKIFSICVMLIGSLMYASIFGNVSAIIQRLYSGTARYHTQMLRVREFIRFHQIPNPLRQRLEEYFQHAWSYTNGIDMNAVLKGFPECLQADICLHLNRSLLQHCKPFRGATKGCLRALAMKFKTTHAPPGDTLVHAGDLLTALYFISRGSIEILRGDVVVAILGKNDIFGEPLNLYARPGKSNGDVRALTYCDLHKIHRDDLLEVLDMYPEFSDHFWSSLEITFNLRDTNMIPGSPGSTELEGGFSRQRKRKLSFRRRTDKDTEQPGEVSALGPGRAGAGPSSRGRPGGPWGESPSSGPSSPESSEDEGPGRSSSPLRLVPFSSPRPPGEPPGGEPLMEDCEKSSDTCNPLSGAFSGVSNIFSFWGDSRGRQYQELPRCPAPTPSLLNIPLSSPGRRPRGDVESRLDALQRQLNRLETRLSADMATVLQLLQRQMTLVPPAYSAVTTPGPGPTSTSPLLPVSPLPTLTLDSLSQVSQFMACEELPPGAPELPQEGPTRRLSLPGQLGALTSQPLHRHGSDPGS

CCN1CCN(c2ccc(S(=O)(=O)N3CCCCC3)cc2NC(=O)Cc2c(Cl)cccc2Cl)CC1
EC50 [1]: < 0.1 µM (active)
EC50 [2]: 49.2 µM (active)
IC50 (Vero): 27.1 µM (active)
EC50 (cells): 0.06 µM (active)

Cc1ccc2[nH]c(CCN(C)C)c(CN3CCOCC3)c2c1
IC50 [3]: 10.7 µM (not active)
IC50 [4]: 6.09 µM (active)

COc1ccc([N+](=O)[O-])c(S(=O)(=O)c2ccc(Cl)cc2)n1
IC50 [5]: 11 µM (active)
AC50 [6]: 7.69 µM (active)
CC50 [7]: 38.1 µM (active)
AC50 (INS1): 6.17 µM (active)
AC50 [8]: 7.08 µM (active)
AC50 [9]: 2.64 µM (active)
AC50 [10]: 0.753 µM (active)
AC50 [11]: 8.16 µM (active)
IC50 [12]: 4.73 µM (active)
AC50 [13]: 3.78 µM (active)
IC50 [14]: 0.391 µM (active)
IC50 [15]: 1.15 µM (not active)
IC50 [16]: 0.81 µM (active)
AC50 [17]: 10 µM (active)

Cc1ccc(C(=O)CSc2nsc(C)c2C#N)cc1
EC50 [18]: < 0.1 µM (inconclusive)
EC50 (H4): > 120 µM (not active)
EC50 [19]: 0.646 µM (active)
EC50 [20]: 1.49 µM (active)
EC50 [21]: 0.976 µM (active)

CC(=O)SC(C[N+](=O)[O-])c1cn(C(C)=O)c2ccccc12 (configuration not stated)
IC50 [5]: 14.5 µM (active)
EC50 [22]: 6.74 µM (active)
EC50 (BJ [23]): > 150 µM (inconclusive)
EC50 [24]: 19.5 µM (active)
EC50 (BJ [25]): 6.21 µM (inconclusive)
IC50 (Galanin receptor type 2): 14.4 µM (not active)
AC50 [10]: 1.48 µM (active)
EC50 [26]: 6.84 µM (active)
AC50 [27]: 3.54 µM (active)
EC50 [28]: > 32 µM (inactive)
EC50 (BJ [29]): 5.02 µM (inconclusive)
EC50 [30]: 12.9 µM (inconclusive)

COc1ccccc1C(=O)Nc1cnc(O)nc1O
EC50 [31]: < 0.3 µM (active)
EC50 [32]: 0.25 µM (active)
EC50 [33]: > 112 µM (not active)

COCCO/C(O)=C1\C(C)=NC2=C(C(=O)CC(c3cccs3)C2)C1c1ccsc1 (configuration not stated)
IC50 [34]: > 69.5 µM (not active)

COC(=O)c1ccc(CSc2ncnc3sc(C)c(C)c23)o1
EC50 [35]: 11.1 µM (active)
